Like-named read-outs stand apart in the source and are kept apart here.
How the values were obtained:
[1] = molecular target: GDP-bound KRAS protein (aa 1-169), containing both G12C and C118A amino acid substitutions (Homo sapiens (Human), UniProt P01116, C118A/G12C); assay: Coupled Nucleotide Exchange Assay; format: biochemical
Experimental: For compounds in Table 9, the following assay conditions were employed:
Coupled Nucleotide Exchange Assay:
The assay plates were then read on a PerkinElmer EnVision Multilabel Reader, using AlphaScreen® technology, and data were analyzed using a 4-parameter logistic model to calculate IC50 values.

[2] = tested on: Phosphorylation of ERK1/2 in MIA PaCa-2 cells; assay: Phospho-ERK1/2 MSD Assay; format: cell-based; settings: Homo sapiens, MiaPaCa-2 cells
[3] = tested on: Phosphorylation of ERK1/2 in A549 cells; assay: Phospho-ERK1/2 MSD Assay (A549); format: cell-based; settings: Homo sapiens
[4] = read-out: Coupled Exchange IC50 (2 h), 2 h compound pre-incubation
[5] = read-out: Coupled Exchange IC50 (20 h), 20 h compound pre-incubation
[6] = MIA PaCa-2, 4 h, read-out: pERK IC50 (4 h, MiaPaCa-2), 4 h compound treatment
[7] = A549, 4 h, read-out: pERK IC50 (4 h, A549), 4 h compound treatment
[8] = read-out: Coupled Exchange IC50 (5 min), 5 min compound pre-incubation
[9] = MIA PaCa-2, read-out: pERK IC50 (4 h), 4 h compound treatment
[10] = read-out: pERK IC50 (4 h), 4 h compound treatment

Sequence of GDP-bound KRAS protein (aa 1-169), containing both G12C and C118A amino acid substitutions (P01116 other isoform, or with tags, fused parts or gaps G12C/C118A): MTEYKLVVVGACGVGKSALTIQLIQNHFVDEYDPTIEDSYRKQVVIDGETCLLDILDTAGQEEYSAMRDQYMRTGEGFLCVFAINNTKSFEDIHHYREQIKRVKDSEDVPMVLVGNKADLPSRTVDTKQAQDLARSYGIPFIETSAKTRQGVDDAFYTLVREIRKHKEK

Compound	IC50 [1, 4] [nM]	IC50 [1, 5] [nM]	IC50 [2, 6] [µM]	IC50 [3, 7] [µM]	IC50 [1, 8] [nM]	IC50 [2, 9] [µM]	IC50 [3, 10] [µM]
C=CC(=O)N1CC(NC(=O)Cn2c(C)c(C(=O)N3CCc4c(cccc4OC)C3)c3cc(Cl)ccc32)C1 [Example 41]	370	120	3.55	> 100			
C=CC(=O)N1CC(N(C)C(=O)Cn2cc(I)c3cc(Br)ccc32)C1 [Example 43]	4650	440			36600	3.82	> 33.3
C=CC(=O)N1CC(NC(=O)Cn2c(C)c(-c3ccccc3N3CCOCC3)c3cc(Cl)ccc32)C1 [Example 49]	720					4.67	7.68
C=CC(=O)N1CC(NC(=O)Cn2c(C)c(C(=O)N3CCc4c(C)cc(Br)cc4C3)c3cc(Br)ccc32)C1 [Example 51]	750	180	4.82	> 100			
C=CC(=O)N1CC(N(C)C(=O)Cn2c(C)c(C(=O)N3CCN(c4ccc(C#N)cn4)C[C@@H]3C)c3cc(Br)ccc32)C1 [Example 52]	530		4.83	> 100			
C=CC(=O)N1CC(N(C)C(=O)Cn2c(C)c(C(=O)N3CCN(c4ccc(C)cn4)CC3)c3cc(Cl)cc(C)c32)C1 [Example 53]	850	180	5	> 100			
C=CC(=O)N1CC(NC(=O)Cn2c(C)c(-c3ccccc3CC)c3cc(Cl)ccc32)C1 [Example 54]	650	200			4370	5.88	> 33.3
C=CC(=O)N1CC(NC(=O)Cn2c3ccc(Br)cc3c3ccc(Oc4cccnc4)nc32)C1 [Example 55]	950	230				5.93	> 100
C=CC(=O)N1CC(NC(=O)Cn2c(C)c(-c3ccccc3Cc3ccccc3)c3cc(Cl)ccc32)C1 [Example 56]	880				4770	6.17	> 100
C=CC(=O)N1CC(NC(=O)Cn2c3ccc(Br)cc3c3ccc(Oc4ccccn4)nc32)C1 [Example 57]	990	140				6.81	> 100
C=CC(=O)N1CC(NC(=O)Cn2c(C)c(C(=O)N3CCc4c(O)cccc4C3)c3cc(Br)ccc32)C1 [Example 58]	280	110	6.81	> 33.3			
C=CC(=O)N1CC(NC(=O)Cn2c(C)c(C(=O)N3CCc4ccccc4C3CC)c3cc(Br)cc(C)c32)C1 (stereo not shown) [Example 59]	810		6.84	45.9			
C=CC(=O)N1CC(NC(=O)Cn2cc(-c3ccccc3-c3ccccc3)c3cc(Br)cc(C)c32)C1 [Example 62]	1180	250				7.06	> 33.3
C=CC(=O)N1CC(N(C)C(=O)Cn2cc(I)c3cc(I)ccc32)C1 [Example 66]	2410	100			19500	8.48	> 33.3
C=CC(=O)N1CC(NC(=O)Cn2c(C)c(-c3ccccc3-c3ccccc3)c3cc(Cl)ccc32)C1 [Example 67]	830	240			3900	8.8	> 100
C=CC(=O)N1CC(NC(=O)Cn2cc(C(=O)N3CCc4c(cccc4OC)C3)c3cc(Cl)cc(Cl)c32)C1 [Example 69]	190	130	9.39	> 100			
C=CC(=O)N1CC(NC(=O)Cn2cc(I)c3ccc(Br)cc32)C1 [Example 70]	8960	1700				9.94	> 100
C=CC(=O)N1CC(NC(=O)Cn2c3ccccc3c3cc(Br)ccc32)C1 [Example 71]	3510	520				10.6	> 100

Compound	IC50 [1, 4] [nM]	IC50 [1, 5] [nM]	IC50 [2, 6] [µM]	IC50 [3, 7] [µM]	IC50 [1, 8] [nM]	IC50 [2, 9] [µM]	IC50 [3, 10] [µM]
C=CC(=O)N1CC(NC(=O)Cn2cc(C(=O)N3CCc4c(C)cccc4C3)c3cc(Cl)cc(Cl)c32)C1 [Example 74]	220	170	11.1	> 100			
C=CC(=O)N1CC(NC(=O)Cn2c3ccc(Br)cc3c3c(Cl)ccnc32)C1 [Example 75]	3730	430				11.3	> 100
C=CC(=O)N1CC(NC(=O)Cn2cc(C(=O)N3CCc4c(cccc4OC)C3)c3cc(Br)ccc32)C1 [Example 76]	640	170	11.4	> 100			
C=CC(=O)N1CC(NC(=O)Cn2cc(-c3ccccc3C)c3cc(Cl)ccc32)C1 [Example 78]	5490	1200			33100	11.7	> 100
C=CC(=O)N1CC(NC(=O)Cn2cc(C(=O)N3CCc4c(Br)cc(C)cc4C3)c3cc(Br)cc(C)c32)C1 [Example 80]	330	150	12.2	25.7			
C=CC(=O)N1CC(NC(=O)Cn2cc(I)c3cc(Br)ccc32)C1 [Example 85]	3840	490			23600	14	> 100
C=CC(=O)N1CC(NC(=O)Cn2cc(C(=O)N3CCc4c(C)cccc4C3)c3cc(Br)ccc32)C1 [Example 86]	680	170	14.1	> 100			
C=CC(=O)N1CC(NC(=O)Cn2cc(I)c3cc(Br)cc(CC)c32)C1 [Example 87]	4810	910				14.7	> 100
C=CC(=O)N1CC(NC(=O)Cn2c(C(=O)NCc3ccccc3CN(C)C)cc3cc(Br)ccc32)C1 [Example 88]	3260	720				14.9	> 100
C=CC(=O)N1CC(N2CCC(n3cc(I)c4cc(Cl)ccc43)C2=O)C1 (stereo not shown) [Example 90]	4300	480			61100	16	> 100
C=CC(=O)N1CC(NC(=O)Cn2cc(Br)c3cc(Cl)cc(C)c32)C1 [Example 91]	3180	370				16.3	> 100
C=CC(=O)N1CC(NC(=O)Cn2cc(C(=O)N3CCc4c(Br)cc(C)cc4C3)c3cc(Cl)cc(Cl)c32)C1 [Example 92]	390	180	16.5	> 100			
C=CC(=O)N1CC(NC(=O)Cn2cc(C(=O)N3CCc4c(C)cccc4C3)c3cc(Br)cc(C)c32)C1 [Example 94]	210	130	16.6	> 100			
C=CC(=O)N1CC(NC(=O)Cn2cc(I)c3cc(Br)c(C)cc32)C1 [Example 95]	5790	1090				16.7	> 100
C=CC(=O)N1CC(NC(=O)Cn2c(C)c(-c3ccccc3N(C)C)c3cc(Cl)ccc32)C1 [Example 98]	1120					18.2	13.2
C=CC(=O)N1CC(NC(=O)Cn2c(C)c(-c3cccc4nc(C)ccc34)c3cc(Cl)ccc32)C1 [Example 101]	1110					20.3	56.8
C=CC(=O)N1CC(NC(=O)Cn2c3c(c4cc(Br)ccc42)CCCCC3)C1 [Example 102]	4900	900				21.2	> 100
